Assay results reported in patent US10383831B2, “2,4,6-trialkoxystryl aryl sulfones, sulfonamides and carboxamides, and methods of preparation and use” (Temple University—Of The Commonwealth System Of Higher …, priority 2015, dated 2019).

What was measured:
Format in all cases: cell-based
CEM = assay: Cytotoxicity assay (viable cell count, trypan blue), CEM; details: T-Cell Lymphoma, 96 hours continuous treatment
Description: (§1) Cells of the cell lines listed in Table 18 (1×10^5) were plated into 6-well dishes. Twenty-four hours later, the compound of Example 1, i.e., (Z)-ethyl 3-((2-methoxy-5-(((E)-2,4,6-trimethoxystyrylsulfonyl)methyl) phenyl)amino)acrylate, or the compound of Comparative Example 1, i.e., sodium (E)-2-(5-((2,4,6-trimethoxystyrylsulfonyl)methyl)-2-methoxyphenylamino) acetate (rigosertib) was added at different concentrations over a 4 log dilution (0.001 to 10 μM). The total number of viable cells was determined after 96 hours of continuous treatment by staining with trypan blue and counting the number of non-staining cells (viable) remaining in each well using a hemacytometer. The percentage of viable cells remaining was calculated as follows: # viable cells (compound treated)/# viable cells (DMSO treated)*100. The GI50 (the concentration of drug resulting in 50% net loss of growth inhibition) was determined.

N417 = assay: Cytotoxicity assay (viable cell count, trypan blue), N417; details: N417, Small Cell Lung Carcinoma; 96 hours continuous treatment
Description: as §1

H1299 = assay: Cytotoxicity assay (viable cell count, trypan blue), H1299; details: H1299, Non-Small Cell Lung Carcinoma, 96 hours continuous treatment
Description: as §1

DAUDI = assay: Cytotoxicity assay (viable cell count, trypan blue), DAUDI; details: B-Cell Lymphoma, 96 hours continuous treatment
Description: as §1

Z1385 = assay: Cytotoxicity assay (viable cell count, trypan blue), Z1385; details: Z1385, Mantle Cell Lymphoma; 96 hours continuous treatment
Description: as §1

K562 = assay: Cytotoxicity assay (viable cell count, trypan blue), K562; details: K562, Chronic Myelogenous Leukemia, 96 hours continuous treatment
Description: as §1

T-24 = assay: Cytotoxicity assay (viable cell count, trypan blue), T-24; details: T-24, Bladder, 96 hours continuous treatment
Description: as §1

UM-UC-3 = assay: Cytotoxicity assay (viable cell count, trypan blue), UM-UC-3; details: UM-UC-3, Bladder, 96 hours continuous treatment
Description: as §1

HCT-15 = assay: Cytotoxicity assay (viable cell count, trypan blue), HCT-15; details: HCT-15, Colo-Rectal, 96 hours continuous treatment
Description: as §1

GRANTA-519 = assay: Cytotoxicity assay (viable cell count, trypan blue), GRANTA-519; details: GRANTA-519, Mantle Cell Lymphoma, 96 hours continuous treatment
Description: as §1

Caov-3 = assay: Cytotoxicity assay (viable cell count, trypan blue), Caov-3; details: Caov-3, Ovarian, 96 hours continuous treatment
Description: as §1

DU145 = assay: Cytotoxicity assay (viable cell count, trypan blue), DU145; details: DU145, Prostate, 96 hours continuous treatment
Description: as §1

RS4; 11 = assay: Cytotoxicity assay (viable cell count, trypan blue), RS4; 11; details: 96 hours continuous treatment
Description: as §1

MDA-MB-231 = assay: Cytotoxicity assay (viable cell count, trypan blue), MDA-MB-231; details: MDA-MB-231, Breast, 96 hours continuous treatment
Description: as §1

PC-3 = assay: Cytotoxicity assay (viable cell count, trypan blue), PC-3; details: PC-3, Prostate, 96 hours continuous treatment
Description: as §1

WM1617 = assay: Cytotoxicity assay (viable cell count, trypan blue), WM1617; details: WM1617, Melanoma; 96 hours continuous treatment
Description: as §1

A549 = assay: Cytotoxicity assay (viable cell count, trypan blue), A549; details: A549, Non-Small Cell Lung Carcinoma, 96 hours continuous treatment
Description: as §1

2008 = assay: Cytotoxicity assay (viable cell count, trypan blue), 2008; details: 2008, Ovarian; 96 hours continuous treatment
Description: as §1

HCT-116 = assay: Cytotoxicity assay (viable cell count, trypan blue), HCT-116; details: HCT-116, Colo-Rectal, 96 hours continuous treatment
Description: as §1

MOLT-4 = assay: Cytotoxicity assay (viable cell count, trypan blue), MOLT-4; details: MOLT-4, T-Cell Lymphoma, 96 hours continuous treatment
Description: as §1

MIA-PaCa-2 = assay: Cytotoxicity assay (viable cell count, trypan blue), MIA-PaCa-2; details: MIA-PaCa-2, Pancreatic, 96 hours continuous treatment
Description: as §1

HT-29 = assay: Cytotoxicity assay (viable cell count, trypan blue), HT-29; details: HT-29, Colo-Rectal, 96 hours continuous treatment
Description: as §1

5367 = assay: Cytotoxicity assay (viable cell count, trypan blue), 5367; details: 5367, Bladder; 96 hours continuous treatment
Description: as §1

tumor cell lines = assay: Cytotoxicity assay, comparison across the cell lines listed in Table 18; details: across the cell lines of Table 18; against some tumor types as much as 10-fold or even 100-fold
Description: as §1

DU145 (prostate cancer) = assay: Cytotoxicity assay, DU145 tumor cells; details: Homo sapiens, DU-145, 96 hours treatment
Description: (§2) The effect of the compounds of the invention on tumor cells was determined by the assay described by Latham et al., Oncogene 12:827-837 (1996). Tumor cells K562 (chronic myelogenous leukaemia) or DU145 (prostate cancer) were plated in 12-well dishes at a cell density of 2.5×10^4 cells well. The plated cells were treated 24 hours later with a compound of the invention dissolved in DMSO at multiple concentrations ranging from 0.001 to 10 μM. The plates were examined 96 hours later under an inverted microscope, Olympus CK-2 using a 10× objective, and compound activity was noted by physical observation. When necessary, the total number of viable cells was determined by trypsinizing the wells and counting the number of viable cells, as determined by trypan blue exclusion, using a hemacytometer.

[1] = tested on: K562 (chronic myelogenous leukaemia); assay: Cytotoxicity assay, K562 tumor cells; details: Homo sapiens, 96 hours treatment
Description: as §2

COc1cc(OC)c(/C=C/S(=O)(=O)Cc2ccc(OC)c(NCC(=O)O)c2)c(OC)c1 [Comparative Example 1, Sodium (E)-2-(5-((2,4,6-trimethoxystyrylsulfonyl)methyl)-2-methoxyphenylamino) acetate, reference compound]
GI50 (CEM): 40 nM | GI50 (N417): 100 nM | GI50 (H1299): 200 nM | GI50 (DAUDI): 75 nM | GI50 (Z1385): 40 nM | GI50 (K562): 120 nM | GI50 (T-24): 70 nM | GI50 (UM-UC-3): 50 nM | GI50 (HCT-15): 200 nM | GI50 (GRANTA-519): 40 nM | GI50 (Caov-3): 150 nM | GI50 (DU145): 150 nM | GI50 (RS4; 11; 11, ALL-B-Cell Precursor): 75 nM | GI50 (MDA-MB-231): 90 nM | GI50 (PC-3): 75 nM | GI50 (WM1617): 300 nM | GI50 (A549): 75 nM | GI50 2008: 100 nM | GI50 (HCT-116): 100 nM | GI50 (MOLT-4): 40 nM | GI50 (MIA-PaCa-2): 150 nM | GI50 (HT-29): 250 nM | GI50 5367: 100 nM

CCOC(=O)/C=C\Nc1cc(CS(=O)(=O)/C=C/c2c(OC)cc(OC)cc2OC)ccc1OC [Ex. 1, (Z)-ethyl 3-((2-methoxy-5-(((E)-2,4,6-trimethoxystyrylsulfonyl)methyl)phenyl)amino) acrylate]
GI50 (CEM; Homo sapiens, CCRF-CEM): 7.5 nM | GI50 (N417): 8 nM | fold more active than the Comparative Example 1 compound (tumor cell lines): at least 4 fold | GI50 (H1299; Homo sapiens, NCI-H1299): 4 nM | GI50 (DAUDI; Homo sapiens): 7.5 nM | GI50 (Z1385): 6 nM | GI50 (K562; Homo sapiens): 3 nM | GI50 (T-24; Homo sapiens): 4 nM | GI50 (UM-UC-3; Homo sapiens, UMUC3): 3 nM | GI50 (HCT-15; Homo sapiens): 7.5 nM | GI50 (GRANTA-519; Homo sapiens): 6 nM | IC50 (DU145 (prostate cancer)): 0.006 µM | GI50 (Caov-3; Homo sapiens): 4 nM | GI50 (DU145; Homo sapiens, DU-145): 10 nM | GI50 (RS4; 11; Homo sapiens, 11, ALL-B-Cell Precursor): 7.5 nM | IC50 [1]: 0.002 µM | GI50 (MDA-MB-231; Homo sapiens): 7.5 nM | GI50 (PC-3; Homo sapiens): 7.5 nM | GI50 (WM1617): 3 nM | GI50 (A549; Homo sapiens): 7.5 nM | GI50 2008: 6 nM | GI50 (HCT-116; Homo sapiens): 7.5 nM | GI50 (MOLT-4; Homo sapiens): 7.5 nM | GI50 (MIA-PaCa-2; Homo sapiens): 5 nM | GI50 (HT-29; Homo sapiens): 15 nM | GI50 5367: 3 nM
